Here are results for six compounds from patent publication US12679855B2, “Inhibitors of the enzyme enolase for precision oncology” (Board of Regents, The University of Texas System, priority 2019, dated 2026).

For data set [1], the system named is D423 (ENO1-deleted) glioma cells. Description: Cell proliferation assay (crystal violet) in ENO1-deleted glioma cells. The data set is classed as cell-based. The conditions noted are these: for IC50: Glioma cell; for selectivity for ENO1-deleted cells: versus ENO1-rescued (D423 ENO1) and ENO1-intact (LN319) glioma cells. How it is done:
Cell culture experiments. Cell culture experiments were conducted using the D423-MG cell line. 1p36 homozygous deletion in D423 includes the genes from CAMTAJ to SLC25A33; this includes ENO1. Isogenic ENO1 ectopically rescued lines were described previously (pCMV ENO1 5X) (Muller et al., 2012, which is incorporated by reference herein). An ENO1-intact cell line (LN319) was used as a control for sensitivity to Enolase inhibitors. Cells were routinely cultured in Dulbecco's modified Eagle's medium supplemented with 10% fetal bovine serum.
Cell proliferation assay. Cell Proliferation was determined by crystal violet staining, as previously described (Leonard et al., 2016 and Satani et al., 2016). The cell lines used were D423 (ENO1-deleted), D423 ENO1 (overexpressing ENO1) and LN319 (control). Glioma cells were seeded in 96-well plates and treated with varying concentrations of the inhibitors described above for 7 days. Cells were then washed with PBS, fixed with 10% formalin and stained with 0.05% crystal violet. Washed and dried plates were dye-extracted using 10% acetic acid, and absorbance was measured at 595 nm using Omegastar Plate Reader (BMG Labtech). To test the efficacy of the synthesized under hypoxic conditions, 1×10^4 cells were plated in 96-well plates, treated with VCY13, VCY15, VCY16, or VCY17 and incubated for 3 days in a hypoxia station (Don Whitley Scientific, Shipley, UK) set at 1% O2 and 5% CO2. Crystal violet staining was then performed as described above.
Additional Biological Data. Pro-drug inhibitor structures and corresponding IC50 values against ENO1-deleted cells are shown below in Table 2. The name and corresponding structures of all synthesized inhibitors are given in left and middle columns of each table. Pro-drug moieties in blue represent a second pro-drug leave group while those in red represent a first pro-drug leave group. Some inhibitors also contain an acetyl-protected hydroxamate, which is also a biologically labile moiety. ENO1-deleted (D423), ENO1-isogenically rescued (D423 ENO1), and ENO1-WT (LN319) cells were treated with either pro-drug inhibitor for 5 days at 21% O2, unless otherwise specified. […] IC50,D423 values at 21% O2 are given in the right columns of each table. Experiments conducted at 1% O2 (hypoxic) or 70% O2 (hyperoxic) conditions are noted, where appropriate.

The format of data set [2] is in vitro ADME. The text has this:
Also described herein are synthesized phosphonate pro-drugs that forgo the use of phosphoramidases or esterases to release the active pharmacophore. These moieties include the attachment of 2-(hydroxymethyl)phenol (VCY27) and 3-(hexadecyloxy)propan-1-ol (ESB7). […] Cyclosal pro-drugs have previously been described for protecting phosphate-containing antiviral nucleotides; however, it was herein discovered that its delivery efficacy can be enhanced under high O2 conditions—a previously unknown finding. Separately, the 3-(hexadecyloxy)propan-1-ol is a pro-drug that has been applied to the antiviral nucleotide Brincidofovir (CMX-001). Appending the long chain ester to HEX may facilitate the pro-drug moiety to be used for the treatment of malignant glioma.

For data set [3], the system named is NCI-60 cell lines. Description: NCI-60 screening. The data set is classed as cell-based. The conditions noted are these: NSC: D-813202. The text has this: Without wishing to be bound by any particular theory, phosphoamidates may be removed across broad cell types. Whilst the IDX184 utilized benzylamine in its pro-drug structure, this drug was specifically directed at hepatocytes, and no evidence was forthcoming that it would be a pro-drug moiety applicable for glioblastoma or other cancer drug delivery. […] For example, FLM37 has been submitted to the NCI-60 screening (NSC: D-813202). All cancer cell lines were affected at concentrations of FLM37 above 10 μM, some with as little as 1 μM. […] More generally, this means that the amine as a second leaving group is applicable as a universal second leaving group for the delivery of phosphonate/phosphate containing bioactive compounds.

Data set [4] concerns D423 (ENO1-deleted) glioma cells. Description: Cell proliferation assay (crystal violet) in ENO1-deleted glioma cells. The class given is cell-based.
In data set [5] the test system is Enolase. Description: Enolase enzymatic activity assay (spectrophotometric, 2-PG to PEP, 240 nm). The data set is classed as biochemical, human. The conditions noted are these: serial dilutions beginning at 100 μM, native lysates. As to the method:
(§1) To assure that benzylamine-protected HEX (FLM38) was not inhibiting Enolase directly, an in vitro spectrophotometric assay was performed to examine Enolase catalytic activity through conversion of 2-phoshpoglycerate (2-PG) to phosphoenolpyruvate (PEP). Without wishing to be bound by theory, if FLM38 were to inhibit Enolase directly, a dose-dependent decrease in absorbance at 240 nm would be observed, corresponding to decreased production of PEP. […] The possibility that the benzylamine moiety could undergo non-enzymatic hydrolysis in aqueous conditions was also examined. This study was performed by measuring the pH-dependence of compound degradation in phosphate buffered D2O via NMR over 3 days.
Enolase enzymatic activity assay. The enzyme activity assay was performed according to a previously described procedure (Muller et al., 2012, which is incorporated by reference herein). […]
In the first, the lysates were treated with the serial dilutions of FLM38 (starting at 100 μM) and the reaction initiated by adding 2.5 mM 2-PG and optical density (OD) was measured at 240 nm using Omegastar Plate reader (BMG Labtech) over the course of 3 h.
In the second experiment, the lysates were pre-incubated in 96-well plates with serial dilutions of FLM38 (starting at 100 µM) at 37° C. for 20 h. The reaction was initiated by adding 2.5 mM 2-PG and OD was measured at 240 nm. […]

The nature of data set [6]: pH degradation assay (31P NMR in phosphate buffered D2O). The data set is classed as physicochemical. The following applies: pH 3, 7, and 8.82, phosphate buffered D2O, NMR over 3 days. As to the method:
as §1
pH degradation assay. Solutions of 50 mM phosphate buffered D2O were prepared at pH 3, 7, and 8.82. For each condition, FLM38 (5 mg, […]) was dissolved in […] of phosphate buffered D2O and placed in NMR tubes. Hydrolysis was monitored by ^31P NMR and was evidenced by the degradation of the compound peak at ~20 ppm and the emergence of the hydrolyzed product at ~18 ppm. Scans were collected every 12 h on a Bruker 500 MHz NMR.

Data set [7] in a line: Human plasma stability assay (31P NMR). The class given is in vitro ADME. How it is done:
VCY17 (left) and POMHEX (right) were prepared at 1.5 mM and added to human plasma in an NMR tube with 10% D2O for signal lock. […] As expected, emergence of the second peak after 1 h is due to hydrolysis of the acetyl-protected hydroxamate; the nitroimidazole moiety remains attached (mono-ester phosphonates always show ^31P-chemical shifts <20 ppm); intact phosphoramidate mixed ester was verified by ^31P-^1H HSQC showing resonance with protons at ~5 ppm (—CH2—O—P) and 4 ppm (—CH2—NH—P). Note that VCY17 and de-acetylated VCY17 can come out as doublets: this is because two chiral centers (Phosphorus and C1) yield cis/trans diasteromers.
VCY13 (FIG. 20A) and VCY31 (FIG. 20B) are thioesterase-labile phosphonoamidates. ENO1-deleted (D423, red), ENO1-isogenically rescued (D423 ENO1, blue), and ENO1-WT (LN319, grey) cells were treated with either VCY13 or VCY31 for 5 days. […] (FIG. 20B) VCY31 is a structurally similar pro-drug that uses 2-picolylamine, rather than benzylamine, as a second pro-drug leave group. […] 4 mM VCY31 was dissolved in 80% human plasma, 20% D2O and monitored by ^31P NMR (121 MHz) for 15 hours. Intact VCY31 has a ^31P NMR shift of 33 ppm. Hydrolysis of the thioester begins to occur after 2 hours, as indicated by the emergence of a peak at ~16 ppm.
Human plasma stability assay. POMHEX and VCY17 (1.5 mM) were added to human plasma (Sigma #P9523) in an NMR tube with 10% D2O for signal lock. ^31P NMR measurements (31P CPD, 1000 transients) were conducted every 30 minutes on the first day and every 24 hours, for 4 days afterwards.

Data set [8] in a line: Serum containing cell culture media stability assay. The data set is classed as in vitro ADME. How it is done: Serum containing Cell Culture Media stability assay. POMHEX and VCY17 (1 mM) were added to DMEM-containing 10% Fetal Bovine Serum cell culture media in an NMR tube with 10% D2O for signal lock) and incubated at 37° C. ^31P NMR measurements (^31P CPD, 1000 transients) were conducted every 24 hours, for 4 days.

The conditions of data set [9]: nitroimidazole in VCY17, nitrofuran in VCY15; cited from earlier work.
The test system of data set [10] is xenografted tumor (D423 ENO1-homozygously deleted cell line). Description: Anti-tumor efficacy in xenografted tumor model. The class given is in vivo, Foxn1 nude mice. How it is done: Two HEX pro-drugs from different classes were tested for anti-tumor efficacy in xenografted tumor (D423 ENO1-homozygously deleted cell line) pre-clinical models (the standard immunodeficient Foxn1 nude mice). Tumor volumes (y-axis) were measured at the indicated dates (x-axis). Without treatment, tumors grow inexorably. […] This is notable because of the high esterase activity in mouse plasma, rodents are a sub-optimal model for pre-clinical efficacy evaluation of esterase-labile pro-drugs.

Setting [11] is: 120 h, ENO1-deleted (D423) cells, 5 days, 21% O2, read-out: IC50,D423.
The mark [12] stands for this setting: 120 h, 21% O2, 5 days where stated, read-out: IC50 against D423 (ENO1-deleted) cells.
Setting [13] is: 4 mM in 80% human plasma, 20% D2O, 31P NMR.

Each structure is given as a SMILES string. Entries after “also recorded” stand apart in the source; their conditions may differ. Where two headings read alike, the source gives them in different places.

For orientation: IC50 means the concentration that inhibits the measured activity by half. As to `CCCCCCCCCCCCCCCCOCCCOP(=O)(O)C1CCCN(O)C1=O` (stereo not shown) [ESB7, 3-(hexadecyloxy)propyl hydrogen (1-hydroxy-2-oxopiperidin-3-yl)phosphonate], the IC50 in data set [1] (setting [11]) came out at 0.202 µM. Further, the “selectivity for ENO1-deleted cells” value in [1] is on record as “selective killing against ENO1-deleted cells”. The “stability under various pH conditions and in biological fluids” value in data set [2] is reported as “robust stability”.
For `CC(C)(C)C(=O)OCOP(=O)(NCc1ccccc1)C1CCCN(O)C1=O` (stereo not shown) [FLM37], the concentration for half-maximal inhibition (IC50) in data set [1] (setting [12]) stood at 0.244 µM; in [1] (setting [11]), 0.15 µM; in data set [4] (Glioma cell, 144 h, 6 days, starting concentration 1 μM, crystal violet (FIG. 7), read-out: IC50 towards D423 cells), 0.063 µM. In data set [1], the “selectivity for ENO1-deleted cells” value is “selective killing towards D423 cells; also recorded: selective for ENO1-deleted cells”. Besides, the “concentration at which some cancer cell lines were affected” value in data set [3] is no less than 1 µM. Moreover, the “concentrations at which all cancer cell lines were affected” value in data set [3] is “above 10 μM”.
Regarding `O=C1C(P(=O)(O)NCc2ccccc2)CCCN1O` (stereo not shown) [FLM38, N-benzyl-P-(1-hydroxy-2-oxopiperidin-3-yl)phosphonamidic acid], the “direct inhibition of Enolase (dose-dependent decrease in absorbance at 240 nm)” value in data set [5] is listed as “does not inhibit Enolase directly”. The “stability to non-enzymatic hydrolysis” value in data set [6] is listed as “remained intact”.
On to `CC(=O)ON1CCCC(P(=O)(NCc2ccccc2)OCc2cnc([N+](=O)[O-])n2C)C1=O` (stereo not shown) [VCY17, 3-((benzylamino)((1-methyl-2-nitro-1H-imidazol-5-yl)methoxy)phosphoryl)-2-oxopiperidin-1-yl acetate], for which the half-maximal inhibitory concentration (IC50) was 12.7 µM in [1] (setting [11]) and 0.975 µM in data set [1] (D423 cells, 1% O2 (hypoxic), read-out: IC50,D423 at 1% O2). Besides, the “difference in bioactivation from 21% to 1% O2” value in data set [1] (taking into account HIF-1α/hypoxia-driven increase in ENO2 expression) is no more than 50 fold. In addition, in [7], the “stable in ex-vivo human plasma for” value is listed as “more than 48 hours”. In [7] (1.5 mM, human plasma with 10% D2O, 31P NMR), the “stability in ex-vivo human plasma over the course of” value is reported as no less than 24 h. For the same compound, the “stable in serum-containing culture media” value in data set [8] is listed as “more than 48 hours”. In data set [4] (4 days, 1% O2 versus 21% O2, ENO1-deleted glioma cells), the “potency increase under 1% O2” value is recorded as “greater than 15 fold”. Besides, the “redox potential of the nitroheterocycle” value in data set [9] was −390 mV.
In the case of `O=C1C([P@]2(=O)OCc3ccccc3O2)CCCN1O` (stereo partly drawn) [VCY27, 1-hydroxy-3-((S)-2-oxido-4H-benzo[d][1,3,2]dioxaphosphinin-2-yl)piperidin-2-one], the 50% inhibitory concentration (IC50) in data set [1] (setting [12]) was roughly 0.5 µM; in data set [1] (setting [11]), 0.5 µM; in data set [1] (D423 cells, 70% O2 (hyperoxic), read-out: IC50,D423 at 70% O2), 0.015 µM. Also, the “selectivity for ENO1-deleted cells” value in [1] is listed as “selective killing against ENO1-deleted cells”. In addition, the tumor volume response entry in data set [10] (1 IP and 1 SC injection, at 35 mg/kg/day each) was “immediate abrogation of tumor growth and eventual tumor regression”. In addition, the “stability under various pH conditions and in biological fluids” value in data set [2] is recorded as “robust stability”.
Take `CC(=O)ON1CCCC(P(=O)(NCc2ccccn2)OCCSC(=O)C(C)(C)C)C1=O` (stereo not shown) [VCY31, 2-oxo-3-((2-(pivaloylthio)ethoxy)((pyridin-2-ylmethyl)amino)phosphoryl) piperidin-1-yl acetate]: the IC50 in data set [1] (setting [12]) and in data set [1] (setting [11]) was 0.059 µM each time. The “selectivity for ENO1-deleted cells” value in data set [1] is on record as “dose-dependent selectivity for ENO1-deleted cells”. Further, in data set [7] (setting [13]), the “hydrolysis of the thioester begins to occur after” value worked out at 2 h. In addition, in data set [7] (setting [13]), the “time without full hydrolysis” value is greater than 15 h. For the same compound, the tumor volume response result in data set [10] (90 mg/kg/day IP) is on record as “suppressed tumor growth”.
